From the kinase profiling compilation of Christmann-Franck et al. (2016) come the findings set out here.

Some results are limits rather than exact numbers.

The target in this assay is SGK1 (human) (UniProt O00141). Put plainly: Flashplate.
Chain of SGK1 (human) (O00141 whole entry, looked up): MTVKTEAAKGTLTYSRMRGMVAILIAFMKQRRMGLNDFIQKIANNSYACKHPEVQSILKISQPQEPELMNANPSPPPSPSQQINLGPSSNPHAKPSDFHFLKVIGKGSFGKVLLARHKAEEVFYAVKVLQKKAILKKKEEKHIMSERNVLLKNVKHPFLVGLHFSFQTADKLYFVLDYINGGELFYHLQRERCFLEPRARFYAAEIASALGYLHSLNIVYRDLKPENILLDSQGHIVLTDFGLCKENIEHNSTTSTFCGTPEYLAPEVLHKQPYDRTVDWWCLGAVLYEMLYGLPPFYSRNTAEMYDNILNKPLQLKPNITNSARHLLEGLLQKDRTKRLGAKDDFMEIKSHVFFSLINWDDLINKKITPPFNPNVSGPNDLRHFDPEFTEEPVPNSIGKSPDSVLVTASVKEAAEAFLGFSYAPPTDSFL
For orientation: Ki means the equilibrium dissociation constant of an inhibitor or competing ligand from its target. For the compound `CC(C)(C)NC(=O)c1ccc2nc3[nH]c4ccccc4c3nc2c1`, the inhibition constant Ki was above 10 µM. For `CCCS(=O)(=O)Nc1ccc(-c2ccc3[nH]nc(NC(=O)CC)c3c2)cc1`, the inhibition constant Ki was 7.94 µM. Next, `Clc1cc2nn[nH]c2cc1Cl`: above 10 µM; `COc1cccc(CNC(=O)c2cc3c(-c4ccccc4)n[nH]c3s2)c1`: 0.794 µM. Next, `Nc1nc2ccc(-c3c(-c4ccc(F)cc4)nc4sccn34)cc2n1CC1CC1`: above 10 µM; `COc1cccc(/C=C2/S/C(=N\c3ccccc3)NC2=O)c1`: above 10 µM; `COc1ccc(OC)c(Nc2ccc3nnc(-c4ccccc4)n3n2)c1`: above 10 µM. Compound `COCC(C)(C)CNc1nccc(-c2c(-c3ccc(F)cc3)nc3c(C)nccn23)n1` had a Ki above 10 µM.

On to `O=C(Nc1n[nH]c2nc3ccccc3cc12)c1ccncc1`, for which the Ki came out at 1.58 µM. For `COc1cc(-c2ccc3c(c2)NC(=O)c2ccc(-c4ccccc4NS(C)(=O)=O)cc2N3)cc(OC)c1OC`, the inhibition constant (Ki) is above 7.94 µM. Consider `CCCC(=O)Nc1n[nH]c2ccc(-c3cccc(F)c3F)cc12`, for which the inhibitory constant (Ki) was above 10 µM. `Cc1nccn2c(-c3ccnc(NCC(C)(C)O)n3)c(-c3ccc(F)cc3F)nc12` gave a Ki above 10 µM. The compound `Fc1ccc(-c2ncn(CCN3CCOCC3)c2-c2ccc3[nH]ncc3c2)cc1` displayed an inhibitory constant (Ki) above 10 µM. The value for `Nc1ncc(-c2ccncc2)c2scc(-c3ccc(NC(=O)Nc4cc(C(F)(F)F)ccc4F)cc3)c12` was 0.631 µM; that for `Cc1ccc2nccc(NC(=O)Nc3cccc(C(F)(F)F)n3)c2c1` was above 10 µM; that for `CN(C(=O)C1CCCCC1)c1ccc2c(c1)nc(NC(=O)c1ccc(C#N)cc1)n2CCC(N)=O` was above 10 µM. The value for `N#Cc1ccc2[nH]c(O)c(-c3ccc(CN4CCOCC4)cn3)c2c1` was 3.16 µM.

`C[C@H](N)COc1cnc(Cl)c(/C=C/c2ccncc2)c1` showed an inhibition constant (Ki) of 5.01 µM. `COc1cccc(-c2cc3c(=O)[nH]c4ccccc4n3c2)c1` registered an inhibitory constant (Ki) above 10 µM. Turning to `NC(=O)c1cc2c(Oc3ccc(Br)cc3)cncc2s1`, the inhibitory constant (Ki) was 2 µM. `Cc1nc(N)sc1-c1ccnc(Nc2ccc(N3CCOCC3)cc2)n1` displayed an inhibitory constant (Ki) of 0.251 µM. `C[C@@H](N)C1CCC(C(=O)Nc2ccnc3[nH]ccc23)CC1` (stereo partly specified): the Ki is above 10 µM. Compound `CCOc1nc(NC(C)=O)cc(N)c1C#N` yielded a Ki above 10 µM. Compound `CS(=O)(=O)N(Cc1ccc2[nH]c(=O)c3cccn3c2c1)C1CC1` yielded a Ki above 10 µM.

Compound `O=C1CC(c2ccc(Cl)cc2Cl)Cc2[nH]c3cc(Cl)ccc3c(=O)c21` (stereo unspecified) gave a Ki above 10 µM.

`C/C(=N/NC(=N)N)c1cc(NC(=O)NCCCCCCNC(=O)Nc2cc(/C(C)=N\NC(=N)N)cc(/C(C)=N/NC(=N)N)c2)cc(/C(C)=N/NC(=N)N)c1` returned an inhibition constant (Ki) of 3.16 µM. `CC[C@H](CO)Nc1nc(NCc2ccccc2)c2ncn(C(C)C)c2n1` displayed an inhibition constant Ki above 10 µM. On to `Nc1nccc2scc(-c3ccc(NC(=O)Nc4cccc(F)c4)cc3)c12`, for which the Ki is above 10 µM.

In the case of `c1ccc(Nc2nc(-c3ccc4[nH]ncc4c3)cs2)cc1`, the Ki came out at 2.51 µM. For the compound `NC(=O)c1sc2ccc(Cl)c(Cl)c2c1NC(=O)c1ccc(Cl)cc1`, the inhibitory constant (Ki) is above 10 µM. In turn, `O=c1cc(-c2ccncc2)nc(NC2CCCCC2)[nH]1` showed an inhibition constant Ki above 10 µM. On to `Cc1ccc(F)c(NC(=O)Nc2ccc(-c3cncc4c3c(N)nn4C)cc2)c1`, for which the Ki is above 10 µM. `O=C(N/N=C/c1ccc(Sc2nc3ccccc3[nH]2)o1)c1cccc([N+](=O)[O-])c1` had a Ki above 10 µM. Compound `Cc1ccc(C(=O)Nc2ccon2)cc1Nc1ncnc2c1cnn2-c1ccccc1` registered a Ki above 10 µM. Compound `CN(C(=O)C1CCCCC1)c1ccc2c(c1)nc(NC(=O)c1ccc(C#N)cc1)n2C` had an inhibition constant (Ki) above 10 µM.

The compound `O=C(O)c1ccccc1Nc1ccnc(Nc2ccc3cn[nH]c3c2)n1` had a Ki of 0.2 µM.

Compound `O=c1[nH]c2cnc(-n3cnc4ccc(F)cc43)nc2n1[C@@H]1CCOc2c(F)cccc21` gave a Ki above 10 µM. `N[C@H](COc1cncc(-c2cc3ccncc3s2)c1)Cc1c[nH]c2ccccc12` displayed a Ki of 0.0501 µM.

As for `CCC(N)(C#Cc1cnc(N)c2c(-c3ccc(NC(=O)Nc4cccc(C)c4)cc3)csc12)CC`, the Ki was found to be 3.98 µM. Consider `Nc1ncnc2scc(C(=O)Nc3ccc(NC(=O)Nc4ccccc4)cc3)c12`, for which the inhibitory constant (Ki) was above 10 µM. Next, `COc1ccc2c(NC(=O)Nc3cccc(C(F)(F)F)n3)ccnc2c1`: above 10 µM.

The compound `CCCCNc1ccc2c3c(cccc13)C(=O)N(CCNCCO)C2=O` had a Ki above 10 µM.

In turn, `NC(=O)c1cc(-c2ccnc(N)n2)[nH]c1-c1ccc(Cl)cc1F` had a Ki of 3.98 µM. Compound `Clc1cc(-c2c[nH]c3ncccc23)nc(NC2CCCCC2)n1` showed an inhibition constant (Ki) of 0.794 µM. Next, `COc1cc(CN2CCCCC2)c(Cl)cc1NC(=O)Nc1cnc(C#N)cn1`: above 10 µM; `Cc1cccc(NC(=O)Nc2ccc(-c3cccc4c3CNC4=O)cc2C)c1`: above 10 µM. Turning to `Cc1c(Cl)c(N2CCC(CN)C2)nc2[nH]cc(C(=O)O)c(=O)c12` (stereo unspecified), the inhibition constant Ki was above 10 µM. Turning to `O=C(Nc1cccc(C(F)(F)F)n1)Nc1ccnc2cc(C(F)(F)F)ccc12`, the Ki was above 10 µM. In turn, `N#Cc1cnc(NC(=O)Nc2ccc3cc(C(=O)O)ccc3c2)cn1` yielded a Ki above 10 µM. As to `Cc1ccc(F)c(-c2ccc3nnc(N)n3c2)c1`, the Ki was above 10 µM.

As for `OC1CCN(c2ncnc3[nH]cc(-c4ccccc4)c23)CC1`, the Ki was determined as 3.98 µM.

For `Cc1ccc(Nc2nc3ccc([N+](=O)[O-])cc3[nH]2)nc1`, the Ki worked out at 0.794 µM. For `Nc1n[nH]c2cccc(-c3ccc(NC(=O)Nc4ccccc4)cc3)c12`, the Ki stood at 1 µM.

`O=C1CCCc2oc3cc(C(F)(F)F)ccc3c(=O)c21` registered a Ki above 10 µM. Next, `Cc1ccc(Cn2cc(-c3ccc4[nH]ncc4c3)nn2)c(C)c1`: 3.16 µM; `CS(=O)(=O)Nc1cc2c(cc1Cl)NC(=O)Nc1cnc(C#N)c(n1)OCCCCCO2`: above 10 µM. For the compound `Cc1ccc(F)c(NC(=O)Nc2ccc(-c3nsc4ncnc(N)c34)cc2)c1`, the inhibition constant Ki is above 10 µM. `CC(C)(C)c1cc(NC(=O)Nc2cccc3ccccc23)n(-c2cccc(C(=O)NCC#N)c2)n1`: the inhibitory constant (Ki) was above 10 µM. Consider `CC(=O)Nc1cccc(CNc2c(Nc3ccc4[nH]ncc4c3)c(=O)c2=O)c1`, for which the inhibition constant Ki worked out at 0.158 µM. Next, `CCOc1nc(C(=O)NCc2ccccc2S(N)(=O)=O)cc(N)c1Cl`: above 10 µM.

`N#Cc1ccc(-c2n[nH]c3c2Cc2ccc(OCCCCN4CCOCC4)cc2-3)cn1` returned an inhibition constant (Ki) above 10 µM.

`CC(C)(C)n1nc(-c2ccc(Cl)cc2)c2c(N)ncnc21` yielded a Ki above 6.31 µM. The compound `O=c1c(NCc2ccc(Cl)c(Cl)c2)c(Nc2ccncc2)c1=O` gave a Ki of 0.501 µM. The compound `O=C(Nc1ccc(CO)cc1)c1cnn2c(-c3ccccc3)ccnc12` showed a Ki above 10 µM. The value for `Cc1cccc(NC(=O)Nc2ccc(-c3csc4c(C#CCN)cnc(N)c34)cc2)c1` was 3.98 µM; that for `Cc1ccc(F)c(NC(=O)Nc2ccc(-c3ccc4nccnc4c3N)cc2)c1` was above 10 µM; that for `Cc1cccc(NC(=O)Nc2ccc(-c3csc4c(-c5cnn(C[C@H](C)O)c5)cnc(N)c34)cc2)c1` was above 10 µM.

Compound `OCC[C@@H](Nc1nc2ccc(-c3ccncc3)cc2s1)c1ccccc1` registered a Ki of 1 µM. As to `Cc1nccn2c(-c3ccnc(NCC4(O)CC4)n3)c(-c3ccc(F)cc3F)nc12`, the Ki was above 10 µM. In turn, `Cc1cccc(NC(=O)Nc2ccc(-c3csc4c(-c5cnn(C[C@@H](C)O)c5)cnc(N)c34)cc2)c1` registered a Ki above 10 µM. The value for `CS(=O)(=O)Nc1ccc(-c2ccc3[nH]nc(N)c3c2)cc1` was 0.631 µM; that for `O=C(Nc1cccc(C(F)(F)F)n1)Nc1ccnc2c(C(F)(F)F)cccc12` was above 10 µM; that for `Cc1ccc(C(=O)Nc2c(C#N)sc3ccc(Cl)c(Cl)c23)cc1` was above 10 µM.

`CCCC(=O)Nc1n[nH]c2nnc(-c3cccc(F)c3F)cc12` yielded an inhibitory constant (Ki) above 10 µM.

`N#C/C(=C\c1ccc(O)c(O)c1)C(=O)NCc1ccccc1`: the Ki was above 10 µM. `O=C(NC(CO)c1cc(Cl)cc(Cl)c1)c1ccc(-c2ccncc2)cc1` (stereo unspecified): the inhibition constant Ki worked out at 3.98 µM. With `N#Cc1ncc2nc1OCCCCCOc1cc(OCC(O)CO)c(Cl)cc1NC(=O)N2` (stereo unspecified), the Ki was above 10 µM. On to `Cc1nc2c(sc3c(Br)ccc(Cl)c32)c(=O)o1`, for which the inhibition constant Ki was above 10 µM. As to `COc1ccc(-c2cnc3c(Br)cnn3c2)cc1`, the Ki worked out at 3.16 µM. The value for `CC(=O)Nc1cc(N)c(C#N)c(-c2ccccc2)n1` was above 10 µM; that for `Nc1nonc1-n1nnc(C(=O)N/N=C/c2cccs2)c1-c1ccccc1` was above 10 µM; that for `COc1cc(/C=C(\C#N)c2nc3cc(C)ccc3[nH]2)c(Br)cc1O` was 5.01 µM. As for `Brc1ccc2c(c1)-c1[nH]ncc1C2`, the Ki is above 10 µM. `CC(C)S(=O)(=O)n1c(N)nc2ccc(-c3c(-c4ccc(F)cc4)nc4sccn34)cc21` yielded a Ki above 10 µM.

Compound `CCOc1ccccc1/C=N/NC(=O)c1nnn(-c2nonc2N)c1N1CCCC1` registered an inhibitory constant (Ki) above 10 µM.

`O=C1Nc2cc(CCOc3ccc(N4CCOCC4)cc3)ccc2Nc2cc(-c3cn(Cc4cc(F)c(F)c(F)c4)c4cnccc34)ccc21` came in with an inhibition constant (Ki) above 10 µM. In turn, `Cc1nccn2c(-c3ccnc(NCCC(C)(C)O)n3)c(-c3ccc(F)cc3F)nc12` yielded an inhibition constant (Ki) above 10 µM. In turn, `NC(=O)c1cc(Cl)cc2[nH]c(-c3ccc(C4CCCNC4)cc3F)nc12` (stereo unspecified) showed an inhibitory constant (Ki) above 10 µM.

In turn, `Nc1n[nH]c2ccc(-c3nnn(Cc4ccccc4)c3-c3ccccc3)cc12` registered a Ki of 0.631 µM.

For the compound `CC(=O)NCC(=O)N1C2CCC1c1cc(Nc3ncc(C(F)(F)F)c(NC4CCC4)n3)ccc12` (stereo unspecified), the Ki was found to be 0.398 µM.

For `c1ccc(Cc2cc(-c3ccc4[nH]ncc4c3)on2)cc1`, the inhibition constant (Ki) amounted to 1.58 µM. As for `O=C(NCc1ccc(Cl)c(Cl)c1)Nc1ccc2[nH]ncc2c1`, the inhibitory constant (Ki) stood at 0.501 µM. Next, `C#Cc1cccc(Nc2ncnc3cc(OCCOC)c(OCCOC)cc23)c1`: above 10 µM; `O=C1NC(=O)C(c2cnc3ccccn23)=C1c1cn2c3c(cc(F)cc13)CN(C(=O)N1CCCCC1)CC2`: above 10 µM. The value for `Nc1nonc1-n1nnc(C(=O)N/N=C/c2ccncc2)c1-c1ccccc1` was above 10 µM. With `CNc1ncnc2c1N=C(c1ccc(NC(=O)Nc3cccc(C(F)(F)F)c3)cc1)CCN2`, the Ki was above 10 µM.
